Measurements reported in US10292979B2, “Methods of treating cancer patients with farnesyltransferase inhibitors” (Kura Oncology, Inc., priority 2015, dated 2019).
Where “and” joins values, the source holds several entries; their conditions need not be identical. Equal values may be shown once.

Legend:
[1] = test system: tumor in nude mice; details: cited from earlier work
[2] = test system: previously untreated elderly or unfit AML patients; experiment: CTEP-20 phase 2 trial of tipifarnib, outcome by N-RAS gene status; type: in vivo, human; details: for PFS: FIG. 8; for ORR (response rate): FIG. 9
Method: CTEP-20 was a phase 2 clinical trial of tipifarnib in previously untreated elderly or unfit AML patients. (Raponi et al., Blood 111:2589-96 (2008)).
N-RAS gene status was determined for 32 patients. […] Accordingly, AML patients can be selected based on mutation status of RAS gene for tipifarnib treatment in order to increase the responsiveness to the treatment.

[3] = test system: AML patients; experiment: Clinical outcome of AML patients treated with tipifarnib versus NK cell biomarker expression in bone marrow (GSE8970/CTEP-20, GSE5122); type: in vivo, human; details: for Exp(b), Cox proportional hazards regression: AML patients treated with tipifarnib
Method: The current study used microarray data generated from global gene expression assay of bone marrow samples collected in two clinical studies investigating the efficacy and safety of FTI tipifarnib. One clinical study was conducted in adult patients aged 65 years or older with previously untreated AML, and the other conducted in relapsed and refractory AML. The clinical results for these studies were previously published (Lancet et al., Blood 109:1387-1394 (2007); Harousseau et al., Blood 9:9 (2007); Raponi et al., Clin. Cancer Res. 13:2254-2260 (2007)), and the gene profiling data were publically available in NCBI's Gene Expression Omnibus (GEO, http://www.ncbi.nlm.nih.gov/geo) and are assessable through GEO Series accession numbers GSE8970 and GSE5122.
As described in Raponi et al., Blood 111:2589-96 (2008), BM samples were collected from consenting patients before treatment with tipifarnib, and mononuclear cells were processed on site. Total RNA was extracted from cell samples, quality controlled, and further processed for microarray analysis. DNA was isolated from the same sample. Samples were assayed for global gene expression, and/or quantitative polymerase chain reaction (QPCR) of specific genes).
Briefly, CR was defined as BM showing less than 5% myeloblasts with normal maturation of all cell lines, absolute neutrophil count (ANC) of at least 10^9/L (1000/μL), and a platelet count of 100×10^9/L (100 000/μL). PR was defined as the presence of recovery of ANC and platelets to the above stated levels, but with 5% to 19% BM blasts, and a greater than 50% decrease in BM blast percentage from baseline. HI was defined as the same as PR, except with recovery of ANC to 0.5 to 1×10^9/L (500 to 1000/μL) and platelet count to 20 to 100×10^9/L (20 000 to 100 000/μL). Progressive disease (PD) was defined as any of the following: more than 50% increase in BM blast percentage from baseline (more than 5% blasts if baseline is less than 5%, more than 10% blasts if baseline is 5% to 10%, and more than 20% blasts if baseline 10% to 20%); greater than 50% increase in circulating blasts; new appearance of circulating blasts on at least 2 consecutive occasions; or development of extramedullary leukemia. Stable disease (SD) was defined as any response not meeting CR, PR, HI, or PD criteria.
Kaplan Meier curves were used to investigate the relationship between biomarker values and clinical benefit. The identification of multiple NK cell related genes, the long duration of response observed in some tipifarnib patients, and the role of RAS mediated signal transduction in NK cells support that the responsiveness of AML patients to tipifarnib treatment could be resulted from bone marrow infiltrates of immune cells.

[4] = test system: relapsed/refractory head-and-neck carcinoma with HRAS mutations; experiment: Phase 2 trial of tipifarnib in advanced tumors with HRAS mutation, cohort 2; type: in vivo, human
Excerpt: (§1) A Phase 2 clinical trial was initiated to use tipifarnib in the treatment of advanced tumors with a known HRAS mutation. The clinical trial design includes enrolling 2 cohorts of 18 patients each. Cohort 1 enrolls subjects with malignant thyroid tumors with HRAS mutations, independent of thyroid histology. Cohort 2 enrolls any subject with a non-hematological HRAS mutant tumor other than thyroid cancer who meets eligibility criteria.
(§2) This clinical trial was designed to include two stages, with the first stage including 11 evaluable patients, and the second stage including 7 additional evaluable patients, and a cohort would not proceed to the second stage if one or no objective response is observed in a cohort in the first stage. The clinical trial is considered positive if at least 4 responses are observed in a cohort out of 18 subjects. The primary endpoint is objective response rate, and tumor response assessments are conducted according to the Response Evaluation Criteria in Solid Tumors version 1.1 criteria (confirmation of response is required).
(§3) According to the protocol, tipifarnib is administered to enrolled patients at a starting dose of 900 mg, orally with food, twice a day (b.i.d.) for 7 days in alternating weeks (Days 1-7 and 15-21) in 28 day cycles. At the discretion of the investigator, the dose of tipifarnib can be increased to 1200 mg b.i.d. if the subject has not experienced dose limiting toxicities at the 900 mg dose level. Subjects who develop serious adverse events (SAE) or ≥grade 2 treatment-emergent adverse events (TEAE) that are deemed related to tipifarnib and lasting ≥14 days will not undergo dose escalation. Stepwise 300 mg dose reductions to control treatment-related, treatment-emergent toxicities are also allowed.
(§4) Four (4) evaluable patients were enrolled in the first cohort (patients with malignant thyroid tumors with HRAS mutations) and eleven (11) evaluable patients were enrolled in the second cohort (patients with non-hematologic malignancies other than thyroid cancer with HRAS mutations). In the second cohort, three (3) of those patients have relapsed/refractory head-and-neck carcinoma and two (2) of those three (3) experienced confirmed objective partial responses (PR) and a third patient experienced disease stabilization beyond six months (>8 months). All three head and neck carcinoma patients are HPV negative. All head and neck patients remain on study. […] In addition, five (5) patients enrolled patients have salivary gland cancers with HRAS mutations, and three (3) of them experienced disease stabilization beyond six months (>7, 9 and >11 months). Cohort 2 was proceeded into the second stage of the trial for enrolment of additional seven patients per the trial protocol.

[5] = test system: salivary gland cancers with HRAS mutations; experiment: as above; type: in vivo, human
Excerpt: as §1, §2, §3, §4

[6] = AML patients with wild type N-RAS
[7] = 34 previously untreated poor-risk and elderly AML patients
[8] = AML patients with 2DS2/2DL2 ratio at the highest (4th) quartile

In the case of `CC[C@H](C)[C@@H](CO[C@@H](Cc1ccccc1)C(=O)N[C@@H](CCS(C)(=O)=O)C(=O)O)NC[C@@H](N)CS` [L-739749, 2(S)-[2(S)-[2(R)-amino-3-mercapto]propylamino-3(S)-methyl]-pentyloxy-3-phenylpropionyl-methionine sulfone], the antitumor activity [1] is given as “potent antitumor activity” and the toxicity [1] is given as “without system toxicity”.
For `Cn1cncc1[C@@](N)(c1ccc(Cl)cc1)c1ccc2c(c1)c(-c1cccc(Cl)c1)cc(=O)n2C` [Tipifarnib, (B)-6-[amino(4-chlorophenyl)(1-methyl-1H-imidazol-5-yl)methyl]-4-(3-ch-lorophenyl)-1-methyl-2(1H)-quinolinone], the PFS ([2]; AML patients with mutant N-RAS) was 65 days, the “ORR (response rate)” value ([2]; AML patients with mutant N-RAS) was 27% and the PFS [2, 6] was 157 days. The “ORR (response rate)” value [2, 6] was 43%, the “KIR2DS2 High 4th Quartile (Upper) Median Survival” value [3, 7] was 564 days and the “KIR2DS2 Low 1st-3rd Quartile Median Survival” value [3, 7] was 153 days. For the same compound, the “Median Overall Survival” value ([3]; 34 previously untreated poor-risk and elderly AML patients, all) was 233 days, the “median OS” value [3, 8] was 750 days and the “median PFS” value [3, 8] was 431 days. For the same compound, the “Exp(b), Cox proportional hazards regression” value ([3]; FIG. 2A: PFS versus KIR2DS2/KIR2DL2 expression ratio) was 0.0006, the “Exp(b), Cox proportional hazards regression” value ([3]; FIG. 2B: OS versus 2DS2/2DL2 ratio) was 0.0048 and the “Exp(b), Cox proportional hazards regression” value ([3]; FIG. 4A: PFS versus 2DS5/2DL5A ratio) was 0.0294. For the same compound, the “Exp(b), Cox proportional hazards regression” value ([3]; FIG. 6A: GZMM/OS) was 0.5688, the “Exp(b), Cox proportional hazards regression” value ([3]; FIG. 6A: GZMM/PFS) was 0.5568 and the “1-4th Q Median (survival)” value ([3]; GSE8970 (CTEP-20), Front Line Elderly AML, 2DS2/2DL2 ratio 1st-4th quintile) was 179 days. The HR ([3]; GSE8970 (CTEP-20), Front Line Elderly AML, 2DS2/2DL2 ratio 5th Q versus rest) was 0.21, the “5th Q Median (survival)” value ([3]; GSE8970 (CTEP-20), Front Line Elderly AML, 2DS2/2DL2 ratio highest quintile) was 754 days and the “all Median (survival)” value ([3]; GSE8970 (CTEP-20), Front Line Elderly AML, all patients) was 233 days. For the same compound, the “Hazards Ratio” value ([3]; KIR2DS2 high versus low, 34 AML patients) was 0.303, the “number of patients with confirmed objective partial responses (PR)” value ([4]; of 3 HPV negative relapsed/refractory head-and-neck carcinoma patients, 900 mg b.i.d. days 1-7 and 15-21 of 28 day cycles) was 2 and the “duration of disease stabilization” value ([4]; third head-and-neck carcinoma patient) was greater than 8 months. For the same compound, the “number of patients with disease stabilization beyond six months” value ([5]; of 5 patients with salivary gland cancers with HRAS mutations) was 3 and the “duration of disease stabilization” value ([5]; the three individual salivary gland cancer patients with stabilization) was > 7 months and 9 months and > 11 months.
